Reference: patent publication US7763580B2, “Methods for treating conditions associated with the accumulation of excess extracellular matrix” (University of Utah Research Foundation, priority 1999, dated 2010)

Legend:
[1] = test system: adult human mesangial cells; assay: Renin-induced TGFβ and fibronectin production by adult human mesangial cells (ELISA); type: cell-based; details: for renin-induced increase in TGFβ production: 10^−5 M inhibitor added at zero time with 10^−7 M human recombinant renin, adult cells, FIG. 7
Procedure: Primary cultures of adult human mesangial cells were grown from human nephrectomy tissues using standard methods. Cells were passaged 4-7 times and then plated (3,000 cell/cm^2) in 12 well plates in 2 ml of medium (Mesangial Basal Medium (Clonetics Corp.) containing 5% FCS, 10 μg/ml penicillin and 100 μg/ml streptomycin) and allowed to grow to 70% confluency for 48 hours at 37EC, 5% CO2. Cultures were washed three times using sterile phosphate buffered saline at room temperature and then 2 ml/well of serum free MBM medium to induce quiescence. After 48 hours, the serum-free medium was removed and 2 ml/well of fresh serum-free medium was added for 24 hours. Human recombinant renin (HrRenin, Hoffman-La Roche Ltd., Basel, Switzerland) in concentrations from 10^−6 to 10^−12 M was added to each well for 24 hours. A blank (no HrRenin) was used as a control. Cells and supernatants were harvested by centrifugation after 24 hrs of culture and frozen at ^−70EC until analysis.
The total production and release of TGFβ into the culture supernatant was measured using an ELISA kit (R & D Systems). Induction of the matrix protein fibronectin (Fn) in the supernatant was measured using anti-fibronectin antibodies in an ELISA to provide further confirmation of induction of TGFβ. Renin-induced induction of TGFβ, fibronectin and PAI-1 mRNA were measured over time using semi-quantitative RT-PCR in a multiplex system where multiple cDNAs are amplified simultaneously according to Dostal et al., Anal. Biochem. 223:239-250 (1994), incorporated by reference herein Determinations were done in triplicate mesangial cell cultures.
(§1) Renin inhibitor Ro42-5892 (Hoffman-LaRoche, Basel, Switzerland), Losartan™ (Merck Pharmaceuticals, West Point, Pa.), Enalapril™ (Sigma Chemical Co., St. Louis, Mo., Prod. No. E6888), or TGFβ1 neutralizing antibody (R & D Systems) were added in the amounts indicated below to separate wells in triplicate to block the renin cascade at different sites after stimulation by renin: • 10^−5 M Renin Inhibitor R042-5892 (Hoffman-LaRoche) • 10^−5 M Enalapril™ (Sigma Chemical Co., St. Louis, Mo.) • 10^−5 M Losartan™ (Merck Pharmaceuticals, West Point, Pa.) • Controls included neutralizing antibody to TGFβ (ATG) and control IgG (TgG)
(§2) These inhibitors were added at zero time with 10^−7 M human recombinant renin (Hoffman-LaRoche).

[2] = test system: Normal fetal human mesangial cells; assay: Renin-induced TGFβ production by fetal human mesangial cells (ELISA); type: cell-based; details: for renin-induced increase in TGFβ production: 10^−5 M inhibitor added at zero time with 10^−7 M human recombinant renin, FIG. 3
Procedure: Normal fetal human mesangial cells (Clonetics Corp., Clonetics, Walkersville, Md.) passaged 5 to 8 times, were plated (3,000 cell/cm^2) in 12 well plates in 2 ml of medium (Mesangial Basal Medium (Clonetics Corp.) containing 5% FCS, 10 μg/ml penicillin and 100 μg/ml streptomycin) and allowed to grow to confluence for 48 hours at 37EC, 5% CO2. Cultures were washed three times using sterile phosphate buffered saline at room temperature and then 2 ml/well of serum free MBM medium to induce quiescence. After 48 hours, the serum-free medium was removed and 2 ml/well of fresh serum-free medium was added. Human recombinant renin (Hoffman-La Roche Ltd., Basel, Switzerland) in concentrations from 10^−6 to 10^−12 M was added to each well. A blank and 5 ng/ml of TGFβ (R & D Systems, Minneapolis, Minn.) were used as controls. Cells and supernatants were harvested by centrifugation after 24 hrs of culture and frozen at ^−70EC until analysis. The total production and release of TGFβ into the culture supernatant was measured using an ELISA kit (R & D Systems). Induction of PAI-1 and fibronectin in the supernatant are also measured using anti-PAI-1 and anti-fibronectin antibodies in an ELISA to provide further confirmation of the inhibition of TGFβ. TGFβ, fibronectin and PAI-1 mRNA are measured using semi-quantitative RT-PCR.
as §1, with “(Hoffman-LaRoche) • 30 ng/ml Anti-TGFβ1 antibody (R & D Systems, #AB 101 NA) • 30 ng/ml Chicken IgG (control for anti-TGFβ1 antibody, R & D Systems, # AB 101 C) • 10^−5 M” for “(Hoffman-LaRoche) • 10^−5 M”, “Point, Pa.)” for “Point, Pa.) • Controls included neutralizing antibody to TGFβ (ATG) and control IgG (TgG)”
as §2

anti-Thy-1 nephritis [3] = assay: Glomerular mRNA levels after rtPA in anti-Thy-1 nephritis; type: in vivo, Sprague-Dawley rats; details: rtPA treated, day 6, FIG. 10
Procedure: (§3) Six Sprague-Dawley rats with were injected with phosphate buffered saline (PBS, as a control) and 18 rats were injected with 300 ug of mouse monoclonal OX7 antibody produced in the laboratory using commercially obtained hybridoma cells (American Type Culture Collecton (Rockville, Md., USA; Peters et al., Kidney Internatl. 54:1570-1580 (1998)) on day 1 to induce anti-Thy-1 nephritis. Injection of the anti rat-thymocyte antibody intravenously causes binding to an epitope in rat glomerular mesangial cells call Thy 1.1. The complement-mediated mesangial cell lysis that follows initiates a cascade of tissue injury, followed by a repair process that involves induction of TGFβ-driven production and deposition of ECM components. […] These alterations favor decreased plasmin generation which decreases matrix turnover and enhances matrix accumulation. Plasmin is the key to mesangial cell matrix turnover (Baricos et al, Kidney Int. 47:1037-1047 (1995)).
Three days after the initial injection, rtPA (Genentech, Inc., San Francisco, Calif.) in a formulation designed for rodent intravenous injection (GenBank E08757) or PBS was injected intravenously. Injections were repeated twice a day from day 3 to day 5. […] Glomerular staining for ECM matrix proteins (collagen type I and III, fibronection EDA+ and tenascin) and glomerular mRNA levels of TGFβ1, fibronectin and PAI-1 were evaluated at day 6. […]

anti-Thy-1 nephritis [4] = assay: Glomerular ECM staining after rtPA in anti-Thy-1 nephritis; type: in vivo, Sprague-Dawley rats
Procedure: as §3
Three days after the initial injection, rtPA (Genentech, Inc., San Francisco, Calif.) in a formulation designed for rodent intravenous injection (GenBank E08757) or PBS was injected intravenously. Injections were repeated twice a day from day 3 to day 5. RtPA was injected i.v. at a dose of 1 mg/kg BW (n'6). Controls received saline (n'6). Glomerular staining for ECM matrix proteins (collagen type I and III, fibronection EDA+ and tenascin) and glomerular mRNA levels of TGFβ1, fibronectin and PAI-1 were evaluated at day 6. Localization of rtPA in nephritic glomeruli and the effect of rtPA on glomerular plasmin were investigated. Rats were sacrificed at day 6 and kidney tissues excised, fixed in formalin and frozen for histological analysis.
Kidney tissue sections were stained for extracellular matrix using Periodic Acid Schiff (PAS) using standard procedures and were stained for specific relevant matrix proteins such as Collagen I, Collagen IV, Fibronectin EDA and tenascin using standard immunohistochemical staining procedures. Matrix proteins were scored by image analysis of 30 glomeruli per rat.

nephritic glomeruli = assay: Plasmin generation by isolated nephritic glomeruli after rtPA injection; type: in vivo, rats; details: rtPA injected 10, 20 and 30 minutes before sacrifice; vs disease control
Procedure: rtPA was injected into nephritic rats 10, 20 and 30 minutes before sacrifice. At sacrifice, glomeruli were isolated and placed in culture with a chromogenic substrate for tPA.

anti-Thy 1 model = details: monotherapy, anti-Thy 1 model (Peters et al.); L-arginine 1% in drinking water; cited from earlier work
[5] = 10^−6M HrRenin, 24 hours, peak of dose response, p<0.05

Molecule: CC(C)(C)S(=O)(=O)C[C@@H](Cc1ccccc1)C(=O)N[C@@H](Cc1c[nH]cn1)C(=O)N[C@@H](CC1CCCCC1)[C@@H](O)[C@@H](O)C1CC1 [Ro 42-5892]
- renin-induced increase in TGFβ production [1]: does not reduce the renin-induced increase in TGFβ production
- renin-induced increase in TGFβ production [2]: does not reduce the renin-induced increase in TGFβ production

Molecule: rtPA: recombinant tissue type plasminogen activator (Genentech)
- Glomerular levels of TGFβ1, FN and PAI-1 mRNA (anti-Thy-1 nephritis [3]): unchanged
- percentage of the glomerular area with positive staining, fibronectin EDA+ (anti-Thy-1 nephritis [4]; rtPA 1 mg/kg BW i.v. twice a day day 3 to 5, day 6, disease control 19±2, p<0.01): 14±1%
- percentage of the glomerular area with positive staining, type IV collagen (anti-Thy-1 nephritis [4]; rtPA 1 mg/kg BW i.v. twice a day day 3 to 5, day 6, disease control 27±2, p<0.01): 23±1%
- percentage of the glomerular area with positive staining, type I collagen (anti-Thy-1 nephritis [4]; rtPA 1 mg/kg BW i.v. twice a day day 3 to 5, day 6, disease control 33±1, p<0.001): 21±3%
- percentage of the glomerular area with positive staining, laminin (anti-Thy-1 nephritis [4]; rtPA 1 mg/kg BW i.v. twice a day day 3 to 5, day 6, disease control 35±2, p<0.001): 25±2%
- matrix accumulated in glomeruli (anti-Thy-1 nephritis [4]; tPA vs control, FIG. 8): overall decrease in matrix accumulated
- Plasmin generation by nephritic glomeruli (nephritic glomeruli): significantly elevated

Molecule: CCCCc1nc(Cl)c(CO)n1Cc1ccc(-c2ccccc2-c2nn[nH]n2)cc1 [Losartan]
- renin-induced increase in TGFβ production [1]: does not reduce the renin-induced increase in TGFβ production
- renin-induced increase in TGFβ production [2]: does not reduce the renin-induced increase in TGFβ production
- reduction of markers of fibrotic disease (anti-Thy 1 model): about 50%

Molecule: N=C(N)NCCC[C@H](N)C(=O)O [L-arginine]
- reduction of markers of fibrotic disease (anti-Thy 1 model): about 50%

B1: HrRenin: Human recombinant renin (Hoffman-La Roche) (protein, UniProt P00797 67-406, looked up)
Renin: LTLGNTTSSVILTNYMDTQYYGEIGIGTPPQTFKVVFDTGSSNVWVPSSKCSRLYTACVYHKLFDASDSSSYKHNGTELTLRYSTGTVSGFLSQDIITVGGITVTQMFGEVTEMPALPFMLAEFDGVVGMGFIEQAIGRVTPIFDNIISQGVLKEDVFSFYYNRDSENSQSLGGQIVLGGSDPQHYEGNFHYINLIKTGVWQIQMKGVSVGSSTLLCEDGCLALVDTGASYISGSTSSIEKLMEALGAKKRLFDYVVKCNEGPTLPDISFHLGGKEYTLTSADYVFQESYSSKKLCTLAIHAMDIPPPTGPTWALGATFIRKFYTEFDRRNNRIGFALAR
- increase in Fn production [1, 5]: 1.4 fold
- increase in TGFβ production [1, 5]: 2 fold
- TGFβ and Fn production, time course ([1]; 10^−7M HrRenin, 24 and 48 hours, p<0.03): significant increases in TGFβ and Fn production at 24 and 48 hours
- TGFβ production by cultured human mesangial cells ([2]; renin 10^−6 to 10^−12 M, 24 hrs, FIG. 2): increases the TGFβ production by cultured human mesangial cells in a dose-dependent manner
